What was measured:
[1] = logP determination by HPLC on a reversed-phase column (C18), EEC Directive 79/831 Annex V.A8; assay type: physicochemical; conditions: HPLC on reversed-phase column (C18), acetonitrile/water with formic acid, EEC Directive 79/831 Annex V.A8
Method in brief: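 Retention on a C18 reversed-phase column (Zorbax Eclipse Plus, 1.8 micron) was used, eluting with acetonitrile/water, each containing formic acid. The gradient ran from 10% to 95% acetonitrile over 4.25 min, then held 1.25 min, at 55° C and 2.0 ml/min, with MS detection.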

[2] = test system: adult houseflies (Musca domestica); experiment: Musca domestica test (MUSCDO); assay type: in vivo; conditions: application rate 100 ppm; after 2 days
Protocol: F. Musca domestica Test (MUSCDO)
(§1) Solvent: dimethyl sulphoxide
(§2) To produce a suitable preparation of active compound, 10 mg of active compound are mixed with 0.5 ml of dimethyl sulphoxide, and the concentrate is diluted with water to the desired concentration.
Vessels containing a sponge treated with sugar solution and the active compound preparation of the desired concentration are populated with 10 adult houseflies (Musca domestica).
After 2 days, the kill in % is determined. 100% means that all of the flies have been killed; 0% means that none of the flies have been killed.

[3] = test system: L1 larvae of the Australian sheep blowfly (Lucilia cuprina); experiment: Lucilia cuprina test (LUCICU); assay type: in vivo; conditions: application rate 100 ppm; after 2 days
Protocol: E. Lucilia cuprina Test (LUCICU)
as §1, §2
About 20 L1 larvae of the Australian sheep blowfly (Lucilia cuprina) are transferred into a test vessel containing minced horsemeat and the active compound preparation of the desired concentration.
After 2 days, the kill in % is determined 100% means that all of the larvae have been killed; 0% means that none of the larvae have been killed.

[4] = test system: larvae of the mustard beetle (Phaedon cochleariae); experiment: Phaedon cochleariae spray test (PHAECO); assay type: in vivo; conditions: Chinese cabbage leaf discs, after 7 days
Method in brief: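 Compound dissolved in acetone/dimethylformamide with alkylaryl polyglycol ether emulsifier, made up in water containing 1000 ppm emulsifier, then diluted to test concentrations and sprayed against mustard beetle larvae. Efficacy (% larvae killed) scored after 7 days.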

[5] = test system: engorged adult female cattle ticks (Boophilus microplus); experiment: Boophilus microplus injection test (BOOPMI Inj); assay type: in vivo; conditions: application rate 20 μg/animal; injection into abdomen; assessed after 7 days
Protocol: C. Boophilus microplus-injection Test (BOOPMI Inj)
as §1
To produce a suitable preparation of active compound, 10 mg of active compound are mixed with 0.5 ml of solvent, and the concentrate is diluted with solvent to the desired concentration.
1 μl of the active compound solution is injected into the abdomen of 5 engorged adult female cattle ticks (Boophilus microplus). The animals are transferred into dishes and kept in a climate-controlled room.
The activity is assessed after 7 days by laying of fertile eggs. Eggs whose fertility is not visible from the outside are stored in a climate-controlled cabinet until the larvae hatch after about 42 days. An efficacy of 100% means that none of the ticks has laid any fertile eggs; 0% means that all eggs are fertile.

[6] = test system: caterpillars of the armyworm (Spodoptera frugiperda); experiment: Spodoptera frugiperda spray test (SPODFR); assay type: in vivo; conditions: maize leaf discs, after 7 days
Method in brief: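 Maize leaf discs sprayed with compound in acetone/DMF with alkylaryl polyglycol ether emulsifier (1000 ppm) in water, dried, then infested with armyworm caterpillars. Mortality (%) scored after 7 days; 100% = all caterpillars killed, 0% = none killed.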

[7] = test system: adult cat fleas (Ctenocephalides felis); experiment: Ctenocephalides felis oral test (CTECFE); assay type: in vivo; conditions: application rate 100 ppm in citrated cattle blood; after 2 days
Protocol: D. Ctenocephalides felis-oral Test (CTECFE)
as §1
To produce a suitable preparation of active compound, 10 mg of active compound are mixed with 0.5 ml of dimethyl sulphoxide. Dilution with citrated cattle blood gives the desired concentration.
About 20 unfed adult cat fleas (Ctenocephalides felis) are placed into a chamber which is closed at the top and bottom with gauze. A metal cylinder whose bottom end is closed with a parafilm is placed onto the chamber. The cylinder contains the blood/active ingredient preparation, which can be imbibed by the fleas through the parafilm membrane.
After 2 days, the kill in % is determined 100% means that all of the fleas have been killed; 0% means that none of the fleas have been killed.

[8] = test system: adult cat fleas (Ctenocephalides felis); experiment: Ctenocephalides felis in vitro contact test with adult cat fleas (T1); conditions: after 48 h
Method in brief: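 Test compound was dissolved in acetone p.a. (9 mg per 1 ml) and diluted as needed. 250 μl was spread evenly over the inner walls and floor of a 25 ml test tube by rotating on an orbital shaker for 2 h at 30 rpm. Once the solvent evaporated, 5-10 adult Ctenocephalides felis were added. Tubes were capped with a perforated plastic lid and kept horizontal at room temperature and ambient humidity.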

[9] = test system: greenhouse red spider mite (Tetranychus urticae); experiment: Tetranychus urticae spray test, OP-resistant (TETRUR); assay type: in vivo; conditions: bean leaf discs, after 6 days
Method in brief: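 Bean leaf discs carrying all stages of OP-resistant Tetranychus urticae were sprayed with compound formulated in acetone/dimethylformamide and diluted in water with 1000 ppm alkylaryl polyglycol ether emulsifier. Mortality (% efficacy, 100% = all mites killed) scored after 6 days.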

| Structure (SMILES) | logP [1] | efficacy (kill in %) [2] [%] | efficacy (kill in %) [3] [%] | efficacy in % ([4]; application rate 100 g/ha) [%] | efficacy (laying of fertile eggs) [5] [%] | efficacy in % ([6]; application rate 100 g/ha) [%] | efficacy (kill in %) [7] [%] | efficacy (dead or moribund fleas) ([8]; application rate 1 μg/cm^2) [%] | efficacy (dead or moribund fleas) ([8]; application rate 5 μg/cm^2) [%] | efficacy in % ([9]; application rate 100 g/ha) [%] | efficacy in % ([4]; application rate 500 g/ha) [%] | efficacy in % ([6]; application rate 500 g/ha) [%] | efficacy in % ([9]; application rate 500 g/ha) [%] |
| --- | --- | --- | --- | --- | --- | --- | --- | --- | --- | --- | --- | --- | --- |
| O=C(NC1CC1)c1cc(-c2cnn(-c3c(C(F)(F)F)c(C(F)(F)C(F)(F)F)nn3-c3ccccc3)c2)ccc1Cl [Ic-6] | 4.54 | 90 | 100 | 100 | 100 | 100 | 100 | – | – | – | – | – | – |
| N#CC1(NC(=O)c2cc(-c3cnn(-c4c(C(F)(F)F)c(C(F)(F)C(F)(F)F)nn4-c4ccccc4)c3)ccc2Cl)CC1 [Ic-7] | 4.43 | 100 | 100 | 100 | 100 | 100 | 100 | – | – | – | – | – | – |
| Cc1nn(-c2c(C(F)(F)F)c(C(F)(F)C(F)(F)F)nn2C)cc1-c1ccc(Cl)c(C(=O)NC2CC2)c1 [Ic-12] | 3.97 | 100 | 100 | 100 | 100 | 100 | 100 | 100 | 100 | – | – | – | – |
| Cn1nc(C(F)(F)C(F)(F)F)c(C(F)(F)F)c1-n1cc(-c2ccc(Cl)c(C(=O)Nc3ccncc3)c2)cn1 [Ic-22] | 2.38 | – | 100 | 100 | 100 | 100 | 100 | – | – | 100 | – | – | – |
| Cn1nc(C(F)(F)C(F)(F)F)c(C(F)(F)F)c1-n1cc(-c2cccc(C(=O)NC3CC3)c2F)cn1 [Ic-33] | – | 100 | 100 | – | 100 | – | 100 | – | – | – | 100 | 83 | – |
| Cn1nc(C(F)(F)C(F)(F)F)c(C(F)(F)F)c1-n1cc(-c2cc(F)cc(C(=O)NC3(C#N)CC3)c2)cn1 [Ic-38] | – | 100 | 100 | – | 100 | – | 100 | – | – | – | 100 | 100 | – |
| Cn1nc(C(F)(F)C(F)(F)F)c(C(F)(F)F)c1-n1cc(-c2cc(F)cc(C(=O)NC3CC3)c2)cn1 [Ic-39] | – | 100 | 100 | – | 100 | 100 | 100 | – | – | 100 | 100 | 100 | – |
| Cn1nc(C(F)(F)C(F)(F)F)c(C(F)(F)F)c1-n1cc(-c2cc(Cl)cc(C(=O)NC3CC3)c2)cn1 [Ic-44] | – | 80 | 100 | – | 100 | – | 100 | – | – | – | 100 | 100 | 80 |

Reference: patent publication US9487489B2, “Halogen-substituted pyrazole derivatives as pest-control agents” (BAYER CROPSCIENCE AKTIENGESELLSCHAFT, priority 2013, dated 2016)
